Literature values in patent publication EP4613273A1, “TREATMENT OF BONE LOSS” (priority 2024, dated 2025).

Target: T1, cathepsin K (Homo sapiens, UniProt P43235)
T1 construct: host or cells: patients with postmenopausal osteoporosis (endogenous enzyme)
T1 sequence (P43235 115-329): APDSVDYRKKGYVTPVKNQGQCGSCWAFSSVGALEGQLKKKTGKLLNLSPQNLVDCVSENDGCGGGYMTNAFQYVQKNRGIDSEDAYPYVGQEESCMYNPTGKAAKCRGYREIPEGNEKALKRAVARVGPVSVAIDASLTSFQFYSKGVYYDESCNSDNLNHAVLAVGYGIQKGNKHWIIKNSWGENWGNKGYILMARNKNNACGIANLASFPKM
Details: cited from earlier work

CC(C)(F)C[C@H](N[C@@H](c1ccc(-c2ccc(S(C)(=O)=O)cc2)cc1)C(F)(F)F)C(=O)NC1(C#N)CC1 [Odanacatib]
adverse effects leading to termination of development: cardio-cerebrovascular adverse effects
